Read-outs that look alike come from different tables or passages of the source. A value given as a limit tells only on which side of the number the result lay.

For orientation: EC50 means the concentration giving half of the maximal effect. As usually defined, the IC50 is the concentration that gives 50% inhibition. Low readings indicate greater potency in that assay, high ones weaker potency in that assay.

Assay [1] relates to latent HIV-1 in J89GFP cells. The assay is described as follows: Latent HIV-1 reactivation in J89GFP cells (EGFP positive cells, flow cytometry). It counts as cell-based. The procedure:
(§1) Three different cell lines of HIV-1 latency were used in this study. These included J89GFP, U1 and ACH-2 cells. The J89GFP cells were a kind gift from Dr. David Levy. The ACH-2 and U1 cells were obtained through the AIDS Research and Reference Reagent Program, Division of AIDS, NIAID, NIH: Dr. Thomas Folks contributor [19]–[21]. Reactivation of latent HIV-1 in the J89GFP cells was measured by quantifying the percentage of EGFP positive cells using a BD FACScan flow cytometer with BD FACSDiva software (BD Biosciences, CA), as described previously. Reactivation of latent HIV-1 in the ACH-2 and U 1 cells was assessed by quantitative analysis of initiated and elongated HIV-1 transcripts, as described previously. All 3 cell lines were maintained in RMPI 1640 medium supplemented with 10% FBS, 0.3 mg/mL L-glutamine, 100 U/mL penicillin, and 100 µg/mL streptomycin at 37°C in humidified air with 5% CO2.
To identify novel activators of latent HIV-1 expression, we screened 640 pure natural products from the TimTec Natural Compound Library at a concentration of 10 ng/mL for 24 hrs in a Jurkat cell (J89GFP) model of latency for their cytotoxicity and ability to reactivate HIV-1 expression. J89GFP cells contain a stably integrated, full-length HIV-1 provirus with an enhanced GFP (EGFP) reporter incorporated into the viral genome. The viral genome in these cells is transcriptionally silent. However, upon stimulation viral transcription is activated and viral expression can be measured by EGFP production. […].
Background: Flow cytometry measures light scatter and fluorescence of single cells or particles in a stream.

Assay [2] deals with latent HIV-1 in U1 cell line. The experiment in a line: Latent HIV-1 reactivation in U1 cells (quantitative PCR of early and late viral RNA transcripts). The format is cell-based. How it is done: as §1
Figure 2 Latent HIV-1 reactivation activity of 57704, alone and in combination with other inducing agents, in the U1 and ACH2 cell line models of virus latency. HIV-1 expression was assessed by quantitative PCR analysis of early and late viral RNA transcripts. Where appropriate, TNFα was used as an activation control. (A) Latent HIV-1 reactivation of activity 57704 in the J89GFP cell line. […] (B) Latent HIV-1 reactivation activity of 57704 in the ACH2 cell line. (C) Latent HIV-1 reactivation of activity 57704 in the U1 cell line. (D) Graph of activation of latent HIV-1 early and late gene transcript expression in the ACH2 and U1 cell lines. EC50 values were determined in Sigma Plot by nonlinear regression, as described previously. (E) Latent HIV-1 reactivation of 5 µM 57704 in combination with 1 µM prostratin in the U1 cell line. […]. (G) Latent HIV-1 reactivation of 5 µM 57704 in combination with 2.5 µM DSF in the U1 cell line. (H) Latent HIV-1 reactivation of 5 µM 57704 in combination with 20 µM BIX-01294 in the U1 cell line. Data represent the mean ± standard deviation from 3 replicate experiments.

The subject of a further assay is Akt phosphorylation. The experiment in a line: Western blot analysis of phosphorylated Akt in J89GFP cells. The settings on record: 5 µM 57704. The format is cell-based. How it is done:
To gain insight into the mechanism by which 57704 reactivates latent HIV-1, we evaluated its activity in combination with inhibitors of different signaling pathways or kinases in J89GFP cells (Fig. 4A, B). […] To determine whether 57704 directly activated the PI3K/Akt signaling pathway, we next assessed the levels of Akt phosphorylation in the J89GFP cells after exposure to 5 µM 57704.
For orientation: A western blot detects proteins with antibodies after separation by electrophoresis.

The next assay deals with T1, PI3K p110α.
T1 construct: purchased Millipore (Billerica, MA)
The experiment in a line: PI3K activity assay (PIP3 production, Millipore kit) in combination with wortmannin, p110α. The format is biochemical. The conditions noted are these: recombinant purified enzyme; 100 nM wortmannin + 5 µM compound. The procedure: The production of phosphatidylinositol (3,4,5)-triphosphate (PIP3) by the four class I PI3K isoenzymes (p110 α, β, γ, δ) was assessed using the PI3 Kinase Activity/Inhibitor Assay Kit (Millipore, Billerica, MA) according to the manufacturer's instructions. This assay works on the principle that the PH domain of the protein GRP-1 binds PIP3 with high affinity and specificity. This protein binds to the glutathione plate and captures either the PIP3 generated as part of the kinase reaction or the biotinylated-PIP3 tracer included in the kit. The captured biotinylated-PIP3 is detected using streptavidin-HRP conjugate and a colorimetric read out (OD 450).
The class I PI3Ks are heterodimeric enzymes formed by association of a p110 catalytic subunit with a p85 regulatory subunit. There are 4 variants of the p110 catalytic subunit designated p110α, β, δ or γ [22]. […] Briefly, in this assay the PIP3 generated as part of the kinase reaction or the biotinylated-PIP3 tracer included in the kit is captured on a glutathione plate via its interaction with the pleckstrin homology (PH) domain of the glutathione S-transferase (GST)-fusion protein general receptor for phosphoinositides-1 (GRP-1). The captured biotinylated-PIP3 is then detected using a streptavidin-HRP conjugate and a colorimetric read out.

The target in a further assay is T2, HDAC1 (Homo sapiens, UniProt Q13547).
T2 construct: purchased BPS Bioscience (San Diego, CA)
The assay is described as follows: Fluorogenic HDAC activity assay, HDAC1. It counts as biochemical. How it is done:
The lysine deacetylase activity of HDACs 1, 2, 3, and 8 was assessed using the Fluorogenic HDAC Assay (BPS Bioscience, San Diego, CA) according to the manufacturer's instructions. The HDAC3 used in this assay was complexed with human nuclear receptor co-repressor 2 (NCOR2; amino acids 395–489), which is an activating co-factor of this HDAC isoform. All assays were carried out under steady-state conditions and the assay read-out was optimized for linearity both as a function of time and enzyme concentration. The formation of the fluorescent product was measured using a SpectraMax M2 Plate Reader (Molecular Devices, CA). The excitation and emission wavelengths were 360 nm and 450 nm, respectively. […]

T2 sequence (Q13547 whole entry): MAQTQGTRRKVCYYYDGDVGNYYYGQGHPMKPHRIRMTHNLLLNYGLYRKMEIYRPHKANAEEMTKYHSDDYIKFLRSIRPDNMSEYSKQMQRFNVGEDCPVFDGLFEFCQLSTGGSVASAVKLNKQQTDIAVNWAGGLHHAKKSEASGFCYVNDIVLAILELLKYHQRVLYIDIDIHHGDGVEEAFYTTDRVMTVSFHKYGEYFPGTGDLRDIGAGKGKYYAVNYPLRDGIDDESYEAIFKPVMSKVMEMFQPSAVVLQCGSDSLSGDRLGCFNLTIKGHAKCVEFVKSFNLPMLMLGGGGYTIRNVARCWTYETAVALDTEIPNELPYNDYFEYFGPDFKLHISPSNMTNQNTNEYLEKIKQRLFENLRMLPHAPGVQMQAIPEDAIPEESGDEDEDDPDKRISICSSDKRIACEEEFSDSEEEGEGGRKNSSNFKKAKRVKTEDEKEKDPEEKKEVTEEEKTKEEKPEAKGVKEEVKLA

With `COc1cc2c(cc1OC)-c1c(OC)c(OC)cc3ccnc(c13)C2=O` [Compound 57704, 1,2,9,10-tetramethoxy-7H-dibenzo[de,g]quinolin-7-one], the concentration giving a half-maximal response (EC50) in assay [1] (Human immunodeficiency virus 1, read-out: EC50, reactivation of latent HIV-1 gene expression) was determined as 10.3 ± 1.2 µM; in assay [2] (Human immunodeficiency virus 1, read-out: EC50, activation of early HIV-1 gene transcript expression), 8.2 µM; in assay [2] (Human immunodeficiency virus 1, read-out: EC50, activation of late HIV-1 gene transcript expression) it was 4.9 µM. Also, the “Latent HIV-1 reactivation activity in presence of PI3K inhibitor wortmannin” value in assay [1] (J89GFP, 20 nM wortmannin) is reported as “significantly attenuated”. Moreover, in assay [1] (J89GFP, 50 nM SB203580), the “Latent HIV-1 reactivation activity in presence of p38 MAPK inhibitor SB203580” value is reported as “unaffected”. Further, the “Latent HIV-1 reactivation activity in presence of Akt Inhibitor IV” value in assay [1] (J89GFP, 500 nM Akt Inhibitor IV) was “significantly attenuated”. The “Latent HIV-1 reactivation activity in presence of PKC inhibitor Gö6983” value in assay [1] (J89GFP, 500 nM Go6983) is “unaffected”. Besides, in assay [1] (J89GFP, 1 µM SP00125), the “Latent HIV-1 reactivation activity in presence of JNK inhibitor SP600125” value is on record as “unaffected”. For the same molecule, the “Latent HIV-1 reactivation activity in presence of NFAT/calcineurin inhibitor cyclosporin A” value in assay [1] (J89GFP, 1 µM cyclosporin A) is reported as “unaffected”. Also, in assay [1] (J89GFP, 2 µM AS-605240), the “Latent HIV-1 reactivation activity in presence of PI3K p110γ inhibitor AS-605240” value is “moderately enhanced”. Moreover, the “Latent HIV-1 reactivation activity in presence of PI3K p110α specific inhibitor PI-103” value in assay [1] (J89GFP, 2 µM PI-103) was “significantly attenuated”. Further, the “Latent HIV-1 reactivation activity in presence of PI3K p110β inhibitor TGX-221” value in assay [1] (J89GFP, 2 µM TGX-221) was “moderately enhanced”. Further, the “Latent HIV-1 reactivation activity in presence of PI3K p110δ inhibitor IC87114” value in assay [1] (J89GFP, 5 µM IC87114) is listed as “not reduced”. Moreover, the “Latent HIV-1 reactivation activity in presence of pan PI3K inhibitor LY 294002” value in assay [1] (J89GFP, 15 µM LY294002) is recorded as “significantly attenuated”. For the same molecule, the “Latent HIV-1 reactivation activity in presence of NF-κB inhibitor 6-amino-4-(4-phenoxyphenylethylamino) quinazoline” value in assay [1] (J89GFP, 20 µM NF-κB activation inhibitor) is “significantly attenuated”. The “Latent HIV-1 reactivation activity in combination with prostratin” value in assay [2] (U1, 5 µM 57704 + 1 µM prostratin) is “increased in an additive manner”. Besides, the “Latent HIV-1 reactivation activity in combination with DSF” value in assay [2] (U1, 5 µM 57704 + 2.5 µM DSF) is recorded as “increased in an additive manner”. In addition, the “Latent HIV-1 reactivation activity in combination with SAHA” value in assay [2] (U1, 5 µM 57704 + 5 µM SAHA) is on record as “increased in an additive manner”. In assay [2] (U1, 5 µM 57704 + 20 µM BIX-01294), the “Latent HIV-1 reactivation activity in combination with BIX-01294” value is “increased in an additive manner”. For the same molecule, in the assay on Akt phosphorylation, the “Akt phosphorylation (Western blot)” value is on record as “increased Akt phosphorylation”. Also, the “Agonist activity: effect on inhibition of PI3K p110α by wortmannin” value with PI3K p110α is reported as “abrogated the ability of wortmannin to inhibit PI3K p110α”. Besides, on HDAC1, the half-inhibitory concentration (IC50) was > 50 µM.
